Measured values published in the supplement of paper PMC11451515.

Test system: NOMO1
Assay: cell viability relative to DMSO control; higher = less cytotoxic
Settings: 48 h
Method in brief: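 Viability, reported as a per-plate percentage of DMSO wells with cell-free wells as background, came from CellTiter-Glo One luminescence. Reading took place after 48 h at 37°C. Before that, NOMO1 or SEM (500 cells/well) or P12-Ichikawa (1000 cells/well) leukemia cells, adapted for at least four passages in each medium, were seeded in 1536-well plates (5 μl) and pin-dosed with library compounds in DMSO, 47 μM to 0.79 nM over 11 threefold points.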

[1] = HPLM + 10% dialyzed FBS, 0.000781 µM
[2] = HPLM + 10% dialyzed FBS, 0.00234 µM
[3] = HPLM + 10% dialyzed FBS, 0.00702 µM
[4] = HPLM + 10% dialyzed FBS, 0.0211 µM
[5] = HPLM + 10% dialyzed FBS, 0.0632 µM
[6] = HPLM + 10% dialyzed FBS, 0.19 µM
[7] = HPLM + 10% dialyzed FBS, 0.569 µM
[8] = HPLM + 10% dialyzed FBS, 1.71 µM
[9] = HPLM + 10% dialyzed FBS, 5.12 µM
[10] = HPLM + 10% dialyzed FBS, 15.4 µM
[11] = HPLM + 10% dialyzed FBS, 46.1 µM
[12] = RPMI 5 mM glucose + 10% FBS, 0.000781 µM
[13] = RPMI 5 mM glucose + 10% FBS, 0.00234 µM
[14] = RPMI 5 mM glucose + 10% FBS, 0.00702 µM
[15] = RPMI 5 mM glucose + 10% FBS, 0.0211 µM
[16] = RPMI 5 mM glucose + 10% FBS, 0.0632 µM
[17] = RPMI 5 mM glucose + 10% FBS, 0.19 µM
[18] = RPMI 5 mM glucose + 10% FBS, 0.569 µM
[19] = RPMI 5 mM glucose + 10% FBS, 1.71 µM
[20] = RPMI 5 mM glucose + 10% FBS, 5.12 µM
[21] = RPMI 5 mM glucose + 10% FBS, 15.4 µM
[22] = RPMI 5 mM glucose + 10% FBS, 46.1 µM
[23] = RPMI 5 mM glucose + 10% dialyzed FBS, 0.000781 µM
[24] = RPMI 5 mM glucose + 10% dialyzed FBS, 0.00234 µM
[25] = RPMI 5 mM glucose + 10% dialyzed FBS, 0.00702 µM
[26] = RPMI 5 mM glucose + 10% dialyzed FBS, 0.0211 µM
[27] = RPMI 5 mM glucose + 10% dialyzed FBS, 0.0632 µM
[28] = RPMI 5 mM glucose + 10% dialyzed FBS, 0.19 µM
[29] = RPMI 5 mM glucose + 10% dialyzed FBS, 0.569 µM
[30] = RPMI 5 mM glucose + 10% dialyzed FBS, 1.71 µM
[31] = RPMI 5 mM glucose + 10% dialyzed FBS, 5.12 µM
[32] = RPMI 5 mM glucose + 10% dialyzed FBS, 15.4 µM
[33] = RPMI 5 mM glucose + 10% dialyzed FBS, 46.1 µM

Structure (SMILES) | cell viability [1] | cell viability [2] | cell viability [3] | cell viability [4] | cell viability [5] | cell viability [6] | cell viability [7] | cell viability [8] | cell viability [9] | cell viability [10] | cell viability [11] | cell viability [12] | cell viability [13] | cell viability [14] | cell viability [15] | cell viability [16] | cell viability [17] | cell viability [18] | cell viability [19] | cell viability [20] | cell viability [21] | cell viability [22] | cell viability [23] | cell viability [24] | cell viability [25] | cell viability [26] | cell viability [27] | cell viability [28] | cell viability [29] | cell viability [30] | cell viability [31] | cell viability [32] | cell viability [33]
CC(C)Cn1cnc2c(N)nc3ccccc3c21 | 120% | 124% | 120% | 116% | 118% | 121% | 117% | 112% | 94.5% | 102% | 89.4% | 98.9% | 110% | 116% | 109% | 114% | 103% | 108% | 103% | 108% | 95.3% | 105% | 112% | 107% | 102% | 128% | 109% | 110% | 115% | 103% | 96% | 98.8% | 100%
N#Cc1ccnc(N2C(=O)CC[C@H]2C(=O)N(c2cncc(F)c2)[C@H](C(=O)NC2CC(F)(F)C2)c2ccccc2Cl)c1 | 90.6% | 92.3% | 96.6% | 114% | 101% | 115% | 67.7% | 49% | 19.6% | 26.2% | 30.7% | 93.2% | 95.6% | 116% | 95.1% | 90.1% | 92% | 94.6% | 79.2% | 16.8% | 16.5% | 14.5% | 97.2% | 97.1% | 96.4% | 101% | 97.6% | 90.7% | 94.8% | 88.2% | 42.2% | 32.1% | 18.8%
O=[S+]([O-])(NCCNC/C=C/c1ccc(Br)cc1)c1cccc2cnccc12 | 110% | 114% | 109% | 81.5% | 101% | 105% | 104% | 97.5% | 95.4% | 79.3% | 69.5% | 98.4% | 88.6% | 92.8% | 105% | 91.3% | 97.6% | 96.1% | 98.8% | 84% | 87.5% | 85.6% | 103% | 100% | 90.7% | 78.4% | 97.6% | 89.9% | 89.1% | 85.3% | 89.7% | 74.3% | 81.7%
COc1cc2ncnc(Nc3cccc(Cl)c3)c2cc1OC | 83% | 93.2% | 86.9% | 80.6% | 69.7% | 59% | 57% | 41.4% | 39.2% | 36% | 3.63% | 95.7% | 101% | 99.3% | 96.6% | 102% | 85.9% | 82.1% | 57.7% | 48.7% | 39.6% | 34.4% | 100% | 95% | 101% | 101% | 76.2% | 75.1% | 72.9% | 47.7% | 45.8% | 38.9% | 37.5%
Cc1nc(N)ncc1-c1nc(N2CCOCC2)c2sc(C(C)(C)O)cc2n1 | – | – | – | – | – | – | – | – | – | – | – | 109% | 118% | 113% | 117% | 106% | 64% | 18.7% | 18.5% | 10.5% | 9.97% | 9.89% | 114% | 113% | 94.2% | 111% | 89.5% | 86.4% | 28.1% | 22.6% | 13.3% | 11.4% | 7.33%
COC(=O)Nc1nc2ccc([S+]([O-])c3ccccc3)cc2[nH]1 (centres undefined) | 96.8% | 106% | 119% | 110% | 101% | 119% | 121% | 113% | 101% | 97.9% | 66.7% | – | – | – | – | – | – | – | – | – | – | – | 113% | 123% | 120% | 131% | 136% | 137% | 123% | 134% | 130% | 116% | 94.8%
OCCN(CCO)c1nc(N2CCCCC2)c2nc(N(CCO)CCO)nc(N3CCCCC3)c2n1 | 128% | 112% | 104% | 128% | 115% | 112% | 120% | 111% | 94.5% | 105% | 46.4% | 120% | 129% | 119% | 107% | 114% | 113% | 105% | 114% | 111% | 113% | 92.4% | 113% | 115% | 117% | 115% | 113% | 114% | 121% | 114% | 114% | 110% | 68%
